Patent US20200239530A1, “COMPOUNDS AND METHODS OF MODULATING PROTEIN DEGRADATION” (Vividion Therapeutics, Inc., priority 2017, published 2020)

How the values were obtained:
Assay in all cases: Cysteine liganding, probe competition
Format in all cases: binding
[1] = molecular target: T1, E3 ubiquitin-protein ligase pellino homolog 1 (PELI1) (Homo sapiens, UniProt Q96FA3)
T1 construct: Cells were resuspended in cold PBS on ice and sonicated with a probe sonicator to achieve lysis; endogenous in cells
How it was run: (§1)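 Probe competition in native proteome: 5 mg/ml lysate, compound 1 hr 25° C, then desthiobiotin iodoacetamide (10 mM stock) 1 hr 25° C; acetone ppt, urea/DTT reduction, iodoacetamide alkylation, trypsin, streptavidin pull-down.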

[2] = molecular target: T2, VPS18 Vacuolar protein sorting-associated protein 18 homolog (Homo sapiens, UniProt Q9P253)
T2 construct: Cells were resuspended in cold PBS on ice and sonicated with a probe sonicator to achieve lysis; endogenous in cells
T2 sequence (Q9P253 1-973): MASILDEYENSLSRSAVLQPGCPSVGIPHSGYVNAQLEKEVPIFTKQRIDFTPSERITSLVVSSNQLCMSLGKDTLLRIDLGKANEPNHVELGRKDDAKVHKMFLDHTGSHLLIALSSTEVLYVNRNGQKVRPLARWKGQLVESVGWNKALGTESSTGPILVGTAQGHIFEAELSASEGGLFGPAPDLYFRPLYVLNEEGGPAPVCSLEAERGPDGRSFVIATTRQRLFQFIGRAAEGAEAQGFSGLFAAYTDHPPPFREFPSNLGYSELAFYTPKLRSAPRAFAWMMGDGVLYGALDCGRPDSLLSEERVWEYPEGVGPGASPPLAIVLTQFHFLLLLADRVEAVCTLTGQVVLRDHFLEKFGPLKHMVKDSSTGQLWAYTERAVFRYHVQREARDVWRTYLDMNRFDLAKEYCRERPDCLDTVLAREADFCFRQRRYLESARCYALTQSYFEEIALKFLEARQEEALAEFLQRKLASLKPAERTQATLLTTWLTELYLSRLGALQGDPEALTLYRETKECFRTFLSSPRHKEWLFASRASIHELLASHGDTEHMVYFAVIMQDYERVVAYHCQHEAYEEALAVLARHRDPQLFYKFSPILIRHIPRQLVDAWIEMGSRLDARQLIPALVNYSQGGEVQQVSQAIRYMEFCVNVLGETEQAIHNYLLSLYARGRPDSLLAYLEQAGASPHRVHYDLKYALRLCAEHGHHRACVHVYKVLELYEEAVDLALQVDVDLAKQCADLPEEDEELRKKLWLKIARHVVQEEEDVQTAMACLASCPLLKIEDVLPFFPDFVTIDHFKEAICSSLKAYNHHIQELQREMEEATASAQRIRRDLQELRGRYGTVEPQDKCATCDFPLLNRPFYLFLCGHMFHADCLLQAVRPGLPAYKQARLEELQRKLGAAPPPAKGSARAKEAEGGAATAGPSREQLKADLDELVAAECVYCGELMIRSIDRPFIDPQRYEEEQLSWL
How it was run: as §1

[3] = molecular target: T3, IDH2 Isocitrate dehydrogenase (Homo sapiens, UniProt P48735)
T3 construct: Cells were resuspended in cold PBS on ice and sonicated with a probe sonicator to achieve lysis; endogenous in cells
T3 sequence (P48735 40-452): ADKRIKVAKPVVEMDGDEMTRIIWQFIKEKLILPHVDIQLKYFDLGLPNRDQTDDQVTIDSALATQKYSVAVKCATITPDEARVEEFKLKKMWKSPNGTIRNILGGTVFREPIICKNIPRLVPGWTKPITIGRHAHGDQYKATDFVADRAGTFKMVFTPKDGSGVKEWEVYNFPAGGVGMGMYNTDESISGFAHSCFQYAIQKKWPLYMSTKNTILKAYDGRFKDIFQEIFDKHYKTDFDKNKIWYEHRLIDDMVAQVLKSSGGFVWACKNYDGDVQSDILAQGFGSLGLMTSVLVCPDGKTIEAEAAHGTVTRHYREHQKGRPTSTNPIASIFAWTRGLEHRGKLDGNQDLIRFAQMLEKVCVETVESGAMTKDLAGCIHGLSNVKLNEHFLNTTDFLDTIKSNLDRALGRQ
How it was run: as §1

T1 sequence (Q96FA3 whole entry): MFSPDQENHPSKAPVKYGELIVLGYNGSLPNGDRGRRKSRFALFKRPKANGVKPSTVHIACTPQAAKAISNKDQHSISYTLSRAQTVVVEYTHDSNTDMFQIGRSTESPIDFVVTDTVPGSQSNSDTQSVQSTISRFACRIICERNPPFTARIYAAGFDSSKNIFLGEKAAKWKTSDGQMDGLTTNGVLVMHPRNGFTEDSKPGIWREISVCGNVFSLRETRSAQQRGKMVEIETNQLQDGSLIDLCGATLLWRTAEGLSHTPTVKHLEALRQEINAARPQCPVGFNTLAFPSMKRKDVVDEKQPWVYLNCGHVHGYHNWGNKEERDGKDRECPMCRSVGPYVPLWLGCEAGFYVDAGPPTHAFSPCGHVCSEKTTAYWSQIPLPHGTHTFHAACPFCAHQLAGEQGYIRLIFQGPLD

Work on C=CC(=O)N(c1ccccc1)c1ccc(Br)cc1 [KB05] yielded an inhibition at 100 µM ([1]; read-out: KB05_100 uM_percent_inhibition) of 2%.

For O=C(CCl)Nc1cc(C(F)(F)F)cc(C(F)(F)F)c1 [KBO3], the “100 Max” value ([2]; uniprot Q9P253) was 19.6, the 100 ave ([2]; uniprot Q9P253) was 16.2 and the “500 Max” value ([2]; uniprot Q9P253) was 47.0. For the same compound, the 500 ave ([2]; uniprot Q9P253) was 47.0, the “100 Max” value ([3]; uniprot P48735) was 63.35 and the 100 ave ([3]; uniprot P48735) was 43.06. The “500 Max” value ([3]; uniprot P48735) was 73.43, the 500 ave ([3]; uniprot P48735) was 70.11 and the “KB03_100 uM_percent_inhibition” value ([1]; 100 uM) was 57%.

In the case of COc1ccc2c(c1)CCCN2C(=O)CCl [KB02], the Liganded ([2]; VPS18 Res# 806, uniprot Q9P253) is reported as “YES” and the Liganded ([3]; IDH2 Res# 154, uniprot P48735) is reported as “YES”.
